This note sets out measurements from patent publication US20230128137A1, “BENZO FIVE-MEMBERED CYCLIC COMPOUND” (MEDSHINE DISCOVERY INC., priority 2020, published 2023).

The nature of data set [1]: Liver microsome metabolic stability in vitro, SD rat. The following applies: SD rat liver microsomes. It counts as in vitro ADME. The method, then: (§1) 3.2 preparation of nicotinamide adenine dinucleotide phosphate cofactor solution: an appropriate amount of NADPH powder was weighed and diluted into 10 mM magnesium chloride solution (working solution concentration: 10 unit/mL; final concentration of reaction system: 1 unit/mL);
(§2) 3.3 preparation of liver microsomes: an appropriate concentration working solution of liver microsomes (human, SD rat, CD-1 mouse, beagle dog) was prepared in 100 mM potassium phosphate buffer;
(§3) 3.4 preparation of quenching solution: cold (4° C.) acetonitrile containing 200 ng/mL tolbutamide and 200 ng/mL labetalol as internal standard (IS) was used as quenching solution;
(§4) 3.5 experimental operation:
(§5) a. empty “incubation” plates T60 and NCF60 were preheated for 10 minutes;
(§6) b. the liver microsomes were diluted to 0.56 mg/mL with 100 mM phosphate buffer;
(§7) c. 445 μL of microsomal working solution (0.56 mg/mL) was transferred to the preheated “incubation” plates T60 and NCF60, and then the“incubation” plates T60 and NCF60 were preincubated for 10 min with continuous shaking at 37° C. 54 μL of liver microsomes were transferred to a blank plate, and 6 μL of NAPDH cofactor was added to the blank plate, and then 180 μL of quenching solution was added thereto;
(§8) e. for NCF60 plate, 50 μL of buffer was added thereto and the mixture was fully mixed for three times. Timing was started; the plate was shaken at 37° C. for 60 minutes;
(§9) f. in “quenching” plate TO, 180 μL of quenching solution and 6 μL of NAPDH cofactor were addded to make sure that the plate was cooled down to prevent evaporation;
(§10) g. for T60 plates, the mixture was fully mixed for three times, and 54 μL of mixture was immediately transferred to the “quenching” plate at the 0 min time point. 44 μL of NAPDH cofactor was then added to the culture plate (T60). Timing was started; the plate was shaken at 37° C. for 60 minutes;
(§11) h. at 5, 10, 20, 30 and 60 min, 180 μL of quenching solution was added to the “quenching” plate, and the mixture was mixed for one time, and 60 μL of sample was continuously transferred from the T60 plate to the “quenching” plate at each time point;
(§12) i. for NCF60: the mixture was mixed for one time, and 60 μL of sample was transferred from the NCF60 culture dish to the “quenching” plate containing quenching solution at 60 minutes time point;
(§13) j. all sampling plates were shaked for 10 minutes, then centrifuged at 4000 rpm for 20 minutes at 4° C.;
(§14) k. 60 μL of supernatant was transferred into 180 μL of HPLC water and stirred with a plate shaker for 10 min;
(§15) 1. before LC-MS/MS analysis, each bioanalysis plate was sealed and shaked for 10 minutes.

Another data set deals with T1, Bcl-xL (Homo sapiens, UniProt Q07817).
T1 construct: Human recombinant Bcl-xL (amino acid 1-209); purchased Reaction Biology Corporation (RBC) APT-11-442; host or cells: E. coli
T1 sequence (Q07817 1-209): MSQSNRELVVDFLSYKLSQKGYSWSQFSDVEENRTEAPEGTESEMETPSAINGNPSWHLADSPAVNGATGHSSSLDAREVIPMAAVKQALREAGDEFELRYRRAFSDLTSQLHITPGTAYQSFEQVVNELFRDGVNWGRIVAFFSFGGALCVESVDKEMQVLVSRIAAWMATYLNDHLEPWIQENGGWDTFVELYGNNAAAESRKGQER
The data set can be described thus: HTRF competition test, Bcl-xL with FAM-Bad peptide (enzymology experiment). It counts as binding. As to conditions: 3 nM Bcl-xL and 40 nM FAM-Bad, read-out: IC50 (nM) for inhibition of Bcl-xL enzyme. The method, then: (§16) This experiment was based on the competition between fluorescently-labeled Bak/Bad/Noxa peptides and GST-labeled Bcl family proteins. The fluorescence detection method based on HTRF was to observe the binding degree by using the fluorescence ratio between Tb-labeled anti-GST and FAM-labeled peptides. This peptide binds to the surface of the Bcl family protein pocket, which is essential for its anti-apoptotic function.
(§17) 1.1 Experimental reagents: analysis buffer: 20 mM potassium phosphate, pH 7.5, 50 mM sodium chloride, 1 mM EDTA, 0.005% Tritonx-100 and 1% DMSO.
(§18) 1.2 Probe: 5,6-FAM-peptide
(§19) 1.4 Experimental Conditions:
3 nM Bcl-xL and 40 nM FAM-Bad
(§20) a) The Bcl enzyme reaction solution was prepared in the newly prepared analysis buffer;
(§21) b) the Bcl enzyme reaction solution was provided;
(§22) c) the compound was first prepared into a 100% dimethyl sulfoxide solution, and then the compound solution was mixed with the Bcl enzyme reaction solution using (Echo550; nanoliter range) technology, and co-incubated for 10 minutes;
(§23) d) the FAM peptide solution was added.
(§24) e) the mixed solution was gently stirred in dark and room temperature, and co-cultured for 10 minutes.
(§25) f) Anti-GST solution was added.
(§26) g) The mixed solution was gently stirred in dark and room temperature, and co-cultured for 1 hour.
(§27) h) The HTRF high-frequency fluorescence ratio was tested, and the IC50 values were calculated.

The next data set has as its target T2, Bcl-2 (Homo sapiens, UniProt P10415).
T2 construct: Human recombinant Bcl-2 (amino acid 1-207); purchased Reaction Biology Corporation (RBC) APT-11-441; host or cells: E. coli
The data set can be described thus: HTRF competition test, Bcl-2 with FAM-BAK peptide (enzymology experiment). It counts as binding. The following applies: 4 nM Bcl-2 and 100 nM FAM-BAK, read-out: IC50 (nM) for inhibition of Bcl-2 enzyme. The method, then: as §16, §17, §18, §19
4 nM Bcl-2 and 100 nM FAM-BAK
as §20, §21, §22, §23, §24, §25, §26, §27

A further data set has as its system RS4;11 cells. The data set is described as follows: CTG (CellTiter-Glo) test of inhibition of RS4;11 cell proliferation. It counts as cell-based. As to conditions: Homo sapiens, 72 hours incubation. The procedure:
2.1 Experimental objectives: To obtain the IC50 value of the test compound in RS4;11 cell lines;
2.2 incubation time: 72 hours;
2.3 experimental method: CTG (Cell Titer-Glo™ Luminescent Cell Viability Assay);
a. when the cells were fused to 80%, the cells were collected and counted;
b. RS4; 11 cell suspension was diluted to 5000 cells/well and 20 uls of cell suspension was seeded in each well of 384-well plate;
c. the cell plates were placed back to 37° C. and incubated in a 5% carbon dioxide incubator for 24 hours;
d. the test compound was prepared into DMSO solution, and 5 μL of each was added to the designated well of the test plate, and the final concentration of DMSO solution was 0.5%;
e. initiation cell viability was detected by CTG;
f. the test plate was put back into the incubator and incubated for another 72 hours;
g. after 72 hours incubation, CellTiter-Glo™ luminescent cell viability assay was completed according to the manufacturer's manual;

Data set [2] in a line: Liver microsome metabolic stability in vitro, human. It counts as in vitro ADME. As to conditions: human liver microsomes. The procedure: as §1, §2, §3, §4, §5, §6, §7, §8, §9, §10, §11, §12, §13, §14, §15

T2 sequence (P10415 1-207): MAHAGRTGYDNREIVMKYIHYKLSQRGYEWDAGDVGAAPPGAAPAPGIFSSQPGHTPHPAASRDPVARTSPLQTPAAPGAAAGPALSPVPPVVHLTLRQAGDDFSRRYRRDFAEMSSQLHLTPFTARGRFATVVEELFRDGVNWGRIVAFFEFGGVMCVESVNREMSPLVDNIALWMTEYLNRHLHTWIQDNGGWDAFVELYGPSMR

For `CC1(C)CCC(CN2CCN(c3ccc(C(=O)NS(=O)(=O)c4cc([N+](=O)[O-])c(NCC5CCOCC5)c5[nH]cnc45)c(Oc4cnc5[nH]ccc5c4)c3)CC2)=C(c2ccc(Cl)cc2)C1` [Compound 2], the CLint scaled at 1 µM turned out to be 23.6 mL/min/kg in data set [1] and 23.9 mL/min/kg in data set [2] (human). For the same compound, the values for the half-life at 1 µM in data set [1] and in data set [2] (human) were 1.76 h and 0.87 h, respectively. Besides, the “Remaining (T = 60 min)” value in data set [1] (60 min incubation) was 64.1%; in data set [2] (60 min incubation) it was 45.6%. In addition, the IC50 amounted to 411 nM at Bcl-xL, 1.5 nM at Bcl-2 and 2.7 nM with RS4;11 cells.
